According to patent US12545659B2, “IRAK degraders and uses thereof” (Kymera Therapeutics, Inc., priority 2019, dated 2026):

molecular target: T1, IRAK4 (Homo sapiens, UniProt Q9NWZ3); assay: IRAK4 MSD Degradation in OCI-LY10; type: cell-based; details: OCI-LY10 cells, 4 hrs incubation, read-out: IRAK4 degradation in OCI-LY10 at 4 hrs: DC50
T1 construct: endogenous in cells; host or cells: OCI-LY10
T1 sequence (Q9NWZ3 1-460): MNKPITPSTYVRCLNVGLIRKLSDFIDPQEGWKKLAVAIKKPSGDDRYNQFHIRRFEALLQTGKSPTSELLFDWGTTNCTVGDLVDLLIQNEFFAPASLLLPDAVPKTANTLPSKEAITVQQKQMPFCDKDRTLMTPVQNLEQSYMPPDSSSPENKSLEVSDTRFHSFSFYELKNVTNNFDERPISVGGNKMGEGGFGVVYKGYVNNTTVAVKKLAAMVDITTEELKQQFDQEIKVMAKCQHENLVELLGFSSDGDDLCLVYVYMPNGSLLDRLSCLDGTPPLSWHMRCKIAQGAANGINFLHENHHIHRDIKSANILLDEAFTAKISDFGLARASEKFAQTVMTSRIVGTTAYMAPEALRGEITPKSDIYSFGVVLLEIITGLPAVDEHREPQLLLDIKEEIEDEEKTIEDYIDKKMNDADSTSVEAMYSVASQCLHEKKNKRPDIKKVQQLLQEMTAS
How it was run: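 IRAK4 remaining in lysates was read by Meso Scale electrochemiluminescence sandwich (2H9 capture, Y279 plus SULFO-TAG detection). Cells were exposed 4 to 24 h at 37 °C to eight 3-fold dilutions from 1 to 10 μM final top; three-parameter logistic fit gave DC50.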

| DC50 [nM] | Structure (SMILES) |
| --- | --- |
| < 50 | Cn1c(=O)n(C2CCC(=O)NC2=O)c2cccc(OCC3CCN(C[C@H]4CC[C@H](n5cc6cc(NC(=O)c7cccc(C(F)(F)F)n7)c(C(C)(C)O)cc6n5)CC4)CC3)c21 (stereo partly shown) [I-132] |
| < 50 | Cn1c(=O)n(C2CCC(=O)NC2=O)c2cccc(CC3CCN(C[C@H]4CC[C@H](n5cc6cc(NC(=O)c7cccc(C(F)(F)F)n7)c(C(F)F)cc6n5)CC4)CC3)c21 (stereo partly shown) [I-72] |
| < 50 | Cn1c(=O)n(C2CCC(=O)NC2=O)c2cccc(C3CCN(C[C@H]4CC[C@H](n5cc6cc(NC(=O)c7cccc(C(F)(F)F)n7)c(C(F)F)cc6n5)CC4)CC3)c21 (stereo partly shown) [I-263] |
| < 50 | CN(C[C@H]1CC[C@H](n2cc3cc(NC(=O)c4cccc(C(F)(F)F)n4)c(C(C)(C)O)cc3n2)CC1)C1CCC2(CC1)CC(Cc1cccc3c1n(C)c(=O)n3C1CCC(=O)NC1=O)C2 (stereo partly shown) [I-74] |
| 50 to 100 | CN(C[C@H]1CC[C@H](n2cc3cc(NC(=O)c4ccccn4)c(C(C)(C)O)cc3n2)CC1)C1CCN(Cc2cccc3c2n(C)c(=O)n3C2CCC(=O)NC2=O)CC1 (stereo partly shown) [I-54] |
| 50 to 100 | Cn1c(=O)n(C2CCC(=O)NC2=O)c2cccc(C3CCN(C[C@H]4CC[C@H](n5cc6cc(NC(=O)c7cccc(C(C)(C)F)n7)c(C(F)F)cc6n5)CC4)CC3)c21 (stereo partly shown) [I-103] |
| < 50 | Cn1c(=O)n(C2CCC(=O)NC2=O)c2cccc(C[C@H]3C[C@H](OC4CCN(C[C@H]5CC[C@H](n6cc7cc(NC(=O)c8cccc(C(F)(F)F)n8)c(C(C)(C)O)cc7n6)CC5)CC4)C3)c21 (stereo partly shown) [I-203] |
| < 50 | COc1cc2nn([C@H]3CC[C@H](CN4CCC(c5cccc6c5n(C)c(=O)n6C5CCC(=O)NC5=O)CC4)CC3)cc2cc1NC(=O)c1cccc(C)n1 (stereo partly shown) [I-328] |
| < 50 | Cn1c(=O)n(C2CCC(=O)NC2=O)c2cccc(C3CCN(C[C@H]4CC[C@H](n5cc6cc(NC(=O)c7cnccn7)c(C(C)(C)O)cc6n5)CC4)CC3)c21 (stereo partly shown) [I-320] |
| 50 to 100 | COc1cc2nn([C@H]3CC[C@H](CN4CC(c5cccc6c5n(C)c(=O)n6C5CCC(=O)NC5=O)C4)CC3)cc2cc1NC(=O)c1cccc(C(C)(C)F)n1 (stereo partly shown) [I-112] |
| < 50 | Cn1c(=O)n(C2CCC(=O)NC2=O)c2cccc(CCC3CC4(CCN(C[C@H]5CC[C@H](n6cc7cc(NC(=O)c8cccc(C(F)(F)F)n8)c(C(C)(C)O)cc7n6)CC5)CC4)C3)c21 (stereo partly shown) [I-53] |
| < 50 | Cn1c(=O)n(C2CCC(=O)NC2=O)c2cccc([C@H]3CC[C@H](N(C)C[C@H]4CC[C@H](n5cc6cc(NC(=O)c7cccc(C(F)(F)F)n7)c(C(C)(C)O)cc6n5)CC4)CC3)c21 (single isomer, unassigned) [I-175, N-[2-[4-[[[4-[1-(2,6-dioxo-3-piperidyl)-3-methyl-2-oxo-benzimidazol-4-yl]cyclohexyl]-methyl-amino]methyl]cyclohexyl]-6-(1-hydroxy-1-methyl-ethyl)indazol-5-yl]-6-(trifluoromethyl)pyridine-2-carboxamide] |
| < 50 | Cn1c(=O)n(C2CCC(=O)NC2=O)c2cccc(CCC3CCN(C[C@H]4CC[C@H](n5cc6cc(NC(=O)c7cccc(C(F)(F)F)n7)c(C(C)(C)O)cc6n5)CC4)CC3)c21 (stereo partly shown) [I-265] |
| < 50 | Cn1c(=O)n(C2CCC(=O)NC2=O)c2cccc(CCC3CCN(C[C@H]4CC[C@H](n5cc6cc(NC(=O)c7cccc(C(F)(F)F)n7)c(C(F)F)cc6n5)CC4)CC3)c21 (stereo partly shown) [I-94] |
| < 50 | CN(C[C@H]1CC[C@H](n2cc3cc(NC(=O)c4cccc(C5CC5)n4)c(C(C)(C)O)cc3n2)CC1)C1CCN(Cc2cccc3c2n(C)c(=O)n3C2CCC(=O)NC2=O)CC1 (stereo partly shown) [I-322] |
| < 50 | CN(C[C@H]1CC[C@H](n2cc3cc(NC(=O)c4cccc(C(F)(F)F)n4)c(C(F)F)cc3n2)CC1)C1CCN(c2cccc3c2n(C)c(=O)n3C2CCC(=O)NC2=O)CC1 (stereo partly shown) [I-168] |
| < 50 | CN(C[C@H]1CC[C@H](n2cc3cc(NC(=O)c4cccc(C(C)(C)C)n4)c(C(C)(C)O)cc3n2)CC1)C1CCN(Cc2cccc3c2n(C)c(=O)n3C2CCC(=O)NC2=O)CC1 (stereo partly shown) [I-235] |
| 50 to 100 | Cn1c(=O)n(C2CCC(=O)NC2=O)c2cccc(C[C@H]3CC[C@H](N(C)C[C@H]4CC[C@H](n5cc6cc(NC(=O)c7cccc(C(F)(F)F)n7)c(C(F)F)cc6n5)CC4)CC3)c21 (stereo partly shown) [I-73] |
| < 50 | Cn1c(=O)n(C2CCC(=O)NC2=O)c2cccc(CN3CC4(CCN(C(=O)[C@H]5CC[C@H](n6cc7cc(NC(=O)c8cccc(C(F)(F)F)n8)c(C(C)(C)O)cc7n6)CC5)CC4)C3)c21 (stereo partly shown) [I-44] |

More lines, now with the values behind:

| Structure (SMILES) | DC50 [nM] |
| --- | --- |
| COc1cc2nn([C@H]3CC[C@H](CN4C[C@H]5CC[C@@H](C4)N5c4cccc5c4n(C)c(=O)n5C4CCC(=O)NC4=O)CC3)cc2cc1NC(=O)c1cccc(C(F)(F)F)n1 (stereo partly shown) [I-284] | 50 to 100 |
| Cn1c(=O)n(C2CCC(=O)NC2=O)c2ccc(C3CN(C[C@H]4CC[C@H](n5cc6cc(NC(=O)c7cccc(C(F)(F)F)n7)c(C(F)F)cc6n5)CC4)C3)cc21 (stereo partly shown) [I-264] | < 50 |
| Cn1c(=O)n(C2CCC(=O)NC2=O)c2cccc(C3CN(C[C@H]4CC[C@H](n5cc6cc(NC(=O)c7cccc(C(F)(F)F)n7)c(C(F)F)cc6n5)CC4)C3)c21 (stereo partly shown) [I-104] | 50 to 100 |

same assay, conditions: OCI-LY10 cells, 24 hrs incubation, read-out: IRAK4 degradation in OCI-LY10 at 24 hrs: DC50

| Structure (SMILES) | DC50 [nM] |
| --- | --- |
| COc1cc2nn([C@H]3CC[C@H](CN4CCC5(CC4)CC(CNc4cccc6c4C(=O)N([C@H]4CCC(=O)NC4=O)C6=O)C5)CC3)cc2cc1NC(=O)c1cccc(C(F)(F)F)n1 [I-131, N-[2-[4-[[2-[[[2-[(3S)-2,6-dioxo-3-piperidyl]-1,3-dioxo-isoindolin-4-yl]amino]methyl]-7-azaspiro[3.5]nonan-7-yl]methyl]cyclohexyl]-6-methoxy-indazol-5-yl]-6-(trifluoromethyl)pyridine-2-carboxamide] | 50 to 100 |
| COc1cc2nn([C@H]3CC[C@H](CN(C)[C@H]4CC[C@H](CNc5cccc6c5C(=O)N(C5CCC(=O)NC5=O)C6=O)CC4)CC3)cc2cc1NC(=O)c1cccc(C(F)(F)F)n1 (stereo partly shown) [I-210] | 50 to 100 |
| O=C1CCC(N2C(=O)c3cccc(NCC4CC5(CCN(C[C@H]6CC[C@H](n7cc8cc(NC(=O)c9cccc(C(F)(F)F)n9)c(C(F)F)cc8n7)CC6)CC5)C4)c3C2=O)C(=O)N1 (stereo partly shown) [I-46] | 50 to 100 |
| CC(C)(O)c1cc2c(cnn2CCN2CCC3(CC2)CC(CCNc2cccc4c2C(=O)N(C2CCC(=O)NC2=O)C4=O)C3)cc1NC(=O)c1cccc(C(F)(F)F)n1 (stereo not shown) [I-87] | 500 to 1000 |
| O=C1CCC(N2C(=O)c3ccc(NCC4CC5(C4)CN(C[C@H]4CC[C@H](n6cc7cc(NC(=O)c8cccc(S(F)(F)(F)(F)F)n8)c(N8CCCCC8)cc7n6)CC4)C5)cc3C2=O)C(=O)N1 (stereo partly shown) [I-297] | 100 to 500 |
| CN(CCCO[C@H]1C[C@H](Nc2cccc3c2C(=O)N(C2CCC(=O)NC2=O)C3=O)C1)C[C@@]1(C)Cc2cc(NC(=O)c3cnn4cccnc34)c(N3CCOCC3)cc2O1 (stereo partly drawn) [I-161, N-[(2R)-2-[[3-[3-[[2-(2,6-dioxo-3-piperidyl)-1,3-dioxo-isoindolin-4-yl]amino]cyclobutoxy]propyl-methyl-amino]methyl]-2-methyl-6-morpholino-3H-benzofuran-5-yl]pyrazolo[1,5-a]pyrimidine-3-carboxamide] | 500 to 1000 |
| CC(C)(O)COc1cc2nn([C@H]3CC[C@H](CN4CCC5(CC4)CC(CNc4cccc6c4C(=O)N(C4CCC(=O)NC4=O)C6=O)C5)CC3)cc2cc1NC(=O)c1cccc(C(C)(C)F)n1 (stereo partly shown) [I-118] | 50 to 100 |
| COc1cc2nn([C@H]3CC[C@H](CN(C)[C@H]4CC[C@@]5(CC4)C[C@@H](CNc4cccc6c4C(=O)N(C4CCC(=O)NC4=O)C6=O)C5)CC3)cc2cc1NC(=O)c1cccc(C(F)(F)F)n1 (stereo partly shown) [I-317] | 50 to 100 |
| COc1c(NC(=O)c2cccc(C(C)(F)F)n2)cc2cn([C@H]3CC[C@H](CN4CC5(CC(CCNc6cccc7c6C(=O)N(C6CCC(=O)NC6=O)C7=O)C5)C4)CC3)nc2c1C (stereo partly shown) [I-188] | 50 to 100 |
| CC(C)(O)c1cc2nc([C@H]3CC[C@H](CN4CCC5(CC4)CC(Nc4cccc6c4C(=O)N(C4CCC(=O)NC4=O)C6=O)C5)CC3)oc2cc1NC(=O)c1cccc(C(F)(F)F)n1 (stereo partly shown) [I-183] | 50 to 100 |
| CN(CCCO[C@H]1C[C@H](Nc2cccc3c2C(=O)N(C2CCC(=O)NC2=O)C3=O)C1)C[C@H]1CC[C@H](n2cc3cc(N(C)C(=O)c4cccc(C(F)(F)F)n4)c(C(C)(C)O)cc3n2)CC1 (stereo partly shown) [I-225] | 500 to 1000 |
| C[C@]1(CN2CCC3(CC2)CC(CCNc2cccc4c2C(=O)N(C2CCC(=O)NC2=O)C4=O)C3)Cc2cc(NC(=O)c3cnn4cccnc34)c(N3CCOCC3)cc2O1 (stereo partly drawn) [I-196, N-[(2R)-2-[[2-[2-[[2-(2,6-dioxo-3-piperidyl)-1,3-dioxo-isoindolin-4-yl]amino]ethyl]-7-azaspiro[3.5]nonan-7-yl]methyl]-2-methyl-6-morpholino-3H-benzofuran-5-yl]pyrazolo[1,5-a]pyrimidine-3-carboxamide] | 500 to 1000 |
| CN(C[C@H]1CC[C@H](n2cc3cc(NC(=O)c4cccc(C(F)(F)F)n4)c(C(C)(C)O)cc3n2)CC1)C1CCC2(CC1)CC(Nc1cccc3c1C(=O)N(C1CCC(=O)NC1=O)C3=O)C2 (stereo partly shown) [I-238] | < 50 |
| CN(CCCO[C@H]1C[C@H](Nc2cccc3c2C(=O)N(C2CCC(=O)NC2=O)C3=O)C1)C[C@H]1CC[C@H](n2cc3cc(NC(=O)c4cccc(S(F)(F)(F)(F)F)n4)c(C(C)(C)O)cc3n2)CC1 (stereo partly shown) [I-290] | 50 to 100 |
| COc1cc2nn([C@H]3CC[C@H](CN(C)[C@H]4CC[C@H](CNc5cccc6c5C(=O)N(C5CCC(=O)NC5=O)C6=O)CC4)CC3)cc2cc1NC(=O)c1cccc(C(C)(C)F)n1 (stereo partly shown) [I-90] | 100 to 500 |
